# Measurements taken from publication PMC7377474, “Preclinical characterization of CPL302-253, a selective inhibitor of PI3Kδ, as the candidate for the inhalatory treatment and prevention of Asthma” (PLoS ONE, 2020).
# What was measured:
# [1] = system: human primary cell cultures and co-cultures; format: cell-based
# Protocol: BioMap Profiling study was performed by DiscovereX according to service provider’s protocol. In brief cultures or co-cultures of human primary cells were treated with sets of stimulators specific for cell subsets. […] The expression of biomarkers specific for each system was measured by ELISA and other techniques. The results are shown as log-transformed ratio of the biomarker readouts for the drug-treated sample to vehicle controls. The grey area parallel to the x-axis indicates the 95% significance region calculated based on historical vehicle controls. […]
# PIK3CA(H1047Y) = biological target: T1, PIK3CA(H1047Y) (Homo sapiens, UniProt P42336, H1047Y); experiment: KINOMEScan single concentration; format: binding; conditions: 1 μM
# T1 construct: purchased Discoverex (KINOMEscan service)
# T1 sequence (P42336 whole entry H1047Y): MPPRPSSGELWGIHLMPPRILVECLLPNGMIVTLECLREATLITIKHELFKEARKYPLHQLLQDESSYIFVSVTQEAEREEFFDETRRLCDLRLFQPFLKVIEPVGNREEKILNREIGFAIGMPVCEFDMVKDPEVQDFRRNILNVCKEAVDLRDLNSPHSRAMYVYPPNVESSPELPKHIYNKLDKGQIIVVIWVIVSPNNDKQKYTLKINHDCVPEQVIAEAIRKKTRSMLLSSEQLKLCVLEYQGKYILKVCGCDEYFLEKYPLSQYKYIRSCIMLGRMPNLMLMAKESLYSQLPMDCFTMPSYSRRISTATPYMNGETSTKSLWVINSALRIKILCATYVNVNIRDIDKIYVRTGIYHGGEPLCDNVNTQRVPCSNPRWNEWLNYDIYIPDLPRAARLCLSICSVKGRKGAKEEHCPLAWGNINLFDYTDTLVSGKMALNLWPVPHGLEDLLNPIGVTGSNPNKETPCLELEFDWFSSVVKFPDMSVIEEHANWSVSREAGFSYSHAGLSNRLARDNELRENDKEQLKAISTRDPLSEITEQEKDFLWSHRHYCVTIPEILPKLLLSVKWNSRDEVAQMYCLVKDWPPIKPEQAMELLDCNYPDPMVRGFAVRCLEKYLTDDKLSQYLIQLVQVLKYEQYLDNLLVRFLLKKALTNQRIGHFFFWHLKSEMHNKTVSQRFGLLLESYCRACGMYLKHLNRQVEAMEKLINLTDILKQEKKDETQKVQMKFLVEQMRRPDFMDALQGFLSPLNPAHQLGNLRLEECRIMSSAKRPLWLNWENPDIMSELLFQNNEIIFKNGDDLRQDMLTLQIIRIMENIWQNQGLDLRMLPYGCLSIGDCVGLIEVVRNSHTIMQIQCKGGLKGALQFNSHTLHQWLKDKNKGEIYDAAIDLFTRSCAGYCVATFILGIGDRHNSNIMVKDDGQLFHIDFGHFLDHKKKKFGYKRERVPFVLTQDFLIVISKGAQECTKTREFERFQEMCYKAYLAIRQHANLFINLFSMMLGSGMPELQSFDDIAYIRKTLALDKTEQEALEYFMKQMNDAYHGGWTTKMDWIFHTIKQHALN
# Protocol: (§1) The inhibitor-kinase binding affinity was assessed in KINOMEscan™ assay (Discoverex) according to service provider’s protocol. In brief, in this binding assay the studied compound in solution is incubated with DNA-tagged kinase and kinase active-site directed ligand bound to the beads. The compound competes for binding to kinase with the immobilized ligand. After incubation beads are removed from the solution and kinase bound to ligand is quantified by qPCR. The strength of compound binding is determined based on its ability to block kinase-ligand binding. 11-point 3-fold serial dilution of CPL302-253 was used in order to determine its binding constants (Kd) against different isotypes of class I PI3K. The single concentration of CPL302-253 was used in order to determine its specificity in abroad panel of 468 human kinases. The measure of compounds affinity to each kinase in the panel was the percentage of kinase activity inhibition by tested ligand in comparison to the control.
# PIK3CA(I800L) = biological target: T2, PIK3CA(I800L) (Homo sapiens, UniProt P42336, I800L); experiment: KINOMEScan single concentration; format: binding; conditions: 1 μM
# T2 construct: purchased Discoverex (KINOMEscan service)
# T2 sequence (P42336 whole entry I800L): as the sequence (P42336 whole entry H1047Y) above, with I800L, Y1047H counted along it
# Protocol: as §1
# PIK3CA(E545K) = biological target: T3, PIK3CA(E545K) (Homo sapiens, UniProt P42336, E545K); experiment: KINOMEScan single concentration; format: binding; conditions: 1 μM
# T3 construct: purchased Discoverex (KINOMEscan service)
# T3 sequence (P42336 whole entry E545K): as the sequence (P42336 whole entry H1047Y) above, with E545K, Y1047H counted along it
# Protocol: as §1
# ULK2 = biological target: T4, ULK2 (Homo sapiens, UniProt Q8IYT8); experiment: KINOMEScan single concentration; format: binding; conditions: 1 μM
# T4 construct: purchased Discoverex (KINOMEscan service)
# Protocol: as §1
# PIK3CA(H1047L) = biological target: T5, PIK3CA(H1047L) (Homo sapiens, UniProt P42336, H1047L); experiment: KINOMEScan single concentration; format: binding; conditions: 1 μM
# T5 construct: purchased Discoverex (KINOMEscan service)
# T5 sequence (P42336 whole entry H1047L): as the sequence (P42336 whole entry H1047Y) above, with Y1047L counted along it
# Protocol: as §1
# PIK3CG = biological target: T6, PIK3CG (Homo sapiens, UniProt P48736); experiment: KINOMEScan single concentration; format: binding; conditions: 1 μM
# T6 construct: purchased Discoverex (KINOMEscan service)
# T6 sequence (P48736 whole entry): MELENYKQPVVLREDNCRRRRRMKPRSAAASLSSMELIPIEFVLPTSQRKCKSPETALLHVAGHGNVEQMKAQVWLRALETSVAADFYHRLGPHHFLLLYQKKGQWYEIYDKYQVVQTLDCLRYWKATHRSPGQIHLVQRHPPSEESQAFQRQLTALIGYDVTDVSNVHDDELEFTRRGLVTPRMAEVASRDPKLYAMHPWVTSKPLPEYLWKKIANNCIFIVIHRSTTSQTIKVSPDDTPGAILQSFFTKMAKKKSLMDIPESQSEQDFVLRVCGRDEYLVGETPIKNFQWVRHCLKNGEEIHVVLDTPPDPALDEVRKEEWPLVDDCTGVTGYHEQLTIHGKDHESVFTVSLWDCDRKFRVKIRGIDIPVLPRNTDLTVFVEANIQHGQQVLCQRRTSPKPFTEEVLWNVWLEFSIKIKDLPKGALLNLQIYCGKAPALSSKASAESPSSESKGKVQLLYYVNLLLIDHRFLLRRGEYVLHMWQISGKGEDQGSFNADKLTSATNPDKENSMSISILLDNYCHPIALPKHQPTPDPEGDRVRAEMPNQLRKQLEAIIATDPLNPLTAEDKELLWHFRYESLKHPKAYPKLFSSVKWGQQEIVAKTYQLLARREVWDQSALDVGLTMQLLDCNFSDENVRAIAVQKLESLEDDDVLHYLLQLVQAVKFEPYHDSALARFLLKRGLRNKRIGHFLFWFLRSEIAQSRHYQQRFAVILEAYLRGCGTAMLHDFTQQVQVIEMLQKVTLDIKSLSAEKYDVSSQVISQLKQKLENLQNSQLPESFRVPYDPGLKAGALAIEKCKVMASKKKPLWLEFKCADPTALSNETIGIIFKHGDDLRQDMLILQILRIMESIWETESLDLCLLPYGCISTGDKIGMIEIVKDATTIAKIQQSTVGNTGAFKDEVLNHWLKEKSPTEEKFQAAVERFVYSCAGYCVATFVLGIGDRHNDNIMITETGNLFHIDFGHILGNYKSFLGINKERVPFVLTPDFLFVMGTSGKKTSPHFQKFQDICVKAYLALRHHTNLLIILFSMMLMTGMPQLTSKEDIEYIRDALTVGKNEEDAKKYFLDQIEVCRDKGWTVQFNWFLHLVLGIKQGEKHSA
# Protocol: as §1
# PIK3CA(M1043I) = biological target: T7, PIK3CA(M1043I) (Homo sapiens, UniProt P42336, M1043I); experiment: KINOMEScan single concentration; format: binding; conditions: 1 μM
# T7 construct: purchased Discoverex (KINOMEscan service)
# T7 sequence (P42336 whole entry M1043I): as the sequence (P42336 whole entry H1047Y) above, with M1043I, Y1047H counted along it
# Protocol: as §1
# PIK3CA(Q546K) = biological target: T8, PIK3CA(Q546K) (Homo sapiens, UniProt P42336, Q546K); experiment: KINOMEScan single concentration; format: binding; conditions: 1 μM
# T8 construct: purchased Discoverex (KINOMEscan service)
# T8 sequence (P42336 whole entry Q546K): as the sequence (P42336 whole entry H1047Y) above, with Q546K, Y1047H counted along it
# Protocol: as §1
# PIK3CA = biological target: T9, PIK3CA (Homo sapiens, UniProt P42336); experiment: KINOMEScan single concentration; format: binding; conditions: 1 μM
# T9 construct: purchased Discoverex (KINOMEscan service)
# T9 sequence (P42336 whole entry): as the sequence (P42336 whole entry H1047Y) above, with Y1047H counted along it
# Protocol: as §1
# MEK5 = biological target: T10, MEK5 (Homo sapiens, UniProt Q13163); experiment: KINOMEScan single concentration; format: binding; conditions: 1 μM
# T10 construct: purchased Discoverex (KINOMEscan service)
# Protocol: as §1
# PIK3CA(E545A) = biological target: T11, PIK3CA(E545A) (Homo sapiens, UniProt P42336, E545A); experiment: KINOMEScan single concentration; format: binding; conditions: 1 μM
# T11 construct: purchased Discoverex (KINOMEscan service)
# T11 sequence (P42336 whole entry E545A): as the sequence (P42336 whole entry H1047Y) above, with E545A, Y1047H counted along it
# Protocol: as §1
# PIK3CA(E542K) = biological target: T12, PIK3CA(E542K) (Homo sapiens, UniProt P42336, E542K); experiment: KINOMEScan single concentration; format: binding; conditions: 1 μM
# T12 construct: purchased Discoverex (KINOMEscan service)
# T12 sequence (P42336 whole entry E542K): as the sequence (P42336 whole entry H1047Y) above, with E542K, Y1047H counted along it
# Protocol: as §1
# PIK3CD = biological target: T13, PIK3CD (Homo sapiens, UniProt O00329); experiment: KINOMEScan single concentration; format: binding; conditions: 1 μM
# T13 construct: purchased Discoverex (KINOMEscan service)
# Protocol: as §1
# ABL1-nonphosphorylated = biological target: T14, ABL1-nonphosphorylated (Homo sapiens, UniProt P00519); experiment: KINOMEScan single concentration; format: binding; conditions: 1 μM
# T14 construct: purchased Discoverex (KINOMEscan service)
# T14 sequence (P00519 whole entry): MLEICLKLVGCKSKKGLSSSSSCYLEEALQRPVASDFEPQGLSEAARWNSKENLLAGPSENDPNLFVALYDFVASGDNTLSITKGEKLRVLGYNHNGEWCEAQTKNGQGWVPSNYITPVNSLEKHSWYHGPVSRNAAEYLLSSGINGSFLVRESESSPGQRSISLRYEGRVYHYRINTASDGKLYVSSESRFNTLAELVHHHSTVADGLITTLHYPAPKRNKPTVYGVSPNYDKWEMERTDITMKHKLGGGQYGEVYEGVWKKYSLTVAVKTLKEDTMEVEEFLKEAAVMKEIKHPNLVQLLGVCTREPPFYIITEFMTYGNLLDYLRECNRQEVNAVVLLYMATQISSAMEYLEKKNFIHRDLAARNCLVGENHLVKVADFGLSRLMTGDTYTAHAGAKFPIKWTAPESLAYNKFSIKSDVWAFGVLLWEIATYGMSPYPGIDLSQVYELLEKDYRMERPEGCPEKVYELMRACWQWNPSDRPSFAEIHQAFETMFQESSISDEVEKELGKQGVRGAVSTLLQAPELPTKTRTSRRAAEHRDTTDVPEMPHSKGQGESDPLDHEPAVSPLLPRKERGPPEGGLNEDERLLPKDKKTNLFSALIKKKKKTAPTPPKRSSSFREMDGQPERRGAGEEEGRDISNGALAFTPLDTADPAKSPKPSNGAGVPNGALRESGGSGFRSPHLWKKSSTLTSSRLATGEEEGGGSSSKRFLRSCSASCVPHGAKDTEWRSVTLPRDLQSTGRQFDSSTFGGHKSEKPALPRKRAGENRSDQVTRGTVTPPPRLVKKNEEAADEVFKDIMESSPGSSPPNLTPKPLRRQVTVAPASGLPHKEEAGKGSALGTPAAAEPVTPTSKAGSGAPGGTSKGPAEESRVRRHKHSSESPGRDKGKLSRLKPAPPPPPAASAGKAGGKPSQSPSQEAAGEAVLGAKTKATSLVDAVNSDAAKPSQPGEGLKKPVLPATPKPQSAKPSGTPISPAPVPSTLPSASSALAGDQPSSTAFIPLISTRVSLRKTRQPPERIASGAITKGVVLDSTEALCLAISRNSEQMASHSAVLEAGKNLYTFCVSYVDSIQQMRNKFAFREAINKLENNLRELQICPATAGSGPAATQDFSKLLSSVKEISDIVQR
# Protocol: as §1
# PIK3CB = biological target: T15, PIK3CB (Homo sapiens, UniProt P42338); experiment: KINOMEScan single concentration; format: binding; conditions: 1 μM
# T15 construct: purchased Discoverex (KINOMEscan service)
# T15 sequence (P42338 whole entry): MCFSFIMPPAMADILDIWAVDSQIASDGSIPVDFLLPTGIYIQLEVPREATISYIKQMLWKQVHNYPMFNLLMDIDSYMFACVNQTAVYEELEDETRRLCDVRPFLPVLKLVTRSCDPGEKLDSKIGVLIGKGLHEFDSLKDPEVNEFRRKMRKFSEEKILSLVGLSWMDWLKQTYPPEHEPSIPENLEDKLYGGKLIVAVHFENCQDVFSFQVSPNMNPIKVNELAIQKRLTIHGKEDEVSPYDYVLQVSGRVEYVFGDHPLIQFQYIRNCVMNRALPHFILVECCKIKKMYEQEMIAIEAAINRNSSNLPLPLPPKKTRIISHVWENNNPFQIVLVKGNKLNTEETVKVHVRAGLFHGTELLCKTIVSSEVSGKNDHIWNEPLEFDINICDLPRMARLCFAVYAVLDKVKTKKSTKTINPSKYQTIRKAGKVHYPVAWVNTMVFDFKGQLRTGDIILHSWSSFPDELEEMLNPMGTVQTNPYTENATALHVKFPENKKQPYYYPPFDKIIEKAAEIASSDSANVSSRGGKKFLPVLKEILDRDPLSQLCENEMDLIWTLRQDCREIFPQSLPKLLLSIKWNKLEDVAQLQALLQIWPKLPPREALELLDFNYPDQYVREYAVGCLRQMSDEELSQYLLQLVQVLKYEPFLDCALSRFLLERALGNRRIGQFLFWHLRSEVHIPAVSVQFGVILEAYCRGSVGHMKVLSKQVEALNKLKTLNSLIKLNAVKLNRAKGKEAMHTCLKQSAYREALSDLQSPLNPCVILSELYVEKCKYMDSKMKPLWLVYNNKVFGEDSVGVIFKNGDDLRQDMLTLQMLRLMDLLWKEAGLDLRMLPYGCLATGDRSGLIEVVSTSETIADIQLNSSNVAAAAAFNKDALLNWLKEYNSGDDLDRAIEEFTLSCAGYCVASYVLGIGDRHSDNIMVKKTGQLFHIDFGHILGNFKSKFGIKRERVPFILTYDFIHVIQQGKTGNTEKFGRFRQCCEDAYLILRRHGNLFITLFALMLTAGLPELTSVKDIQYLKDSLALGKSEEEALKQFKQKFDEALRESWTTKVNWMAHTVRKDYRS
# Protocol: as §1
# PIK3CA(C420R) = biological target: T16, PIK3CA(C420R) (Homo sapiens, UniProt P42336, C420R); experiment: KINOMEScan single concentration; format: binding; conditions: 1 μM
# T16 construct: purchased Discoverex (KINOMEscan service)
# T16 sequence (P42336 whole entry C420R): as the sequence (P42336 whole entry H1047Y) above, with C420R, Y1047H counted along it
# Protocol: as §1
# [2] = system: panel of 468 human kinases; experiment: KINOMEScan broad panel; format: binding; conditions: 1 μM
# Protocol: as §1
# in vitro = format: cell-based; conditions: human
# Protocol: (§2) The study was performed by Cyprotex according to service provider’s protocol. In brief NHBE cells were plated on 96-well plate. The cells were dosed with test compound at 0.0457, 0.137, 0.412, 1.24, 3.7, 11.1, 33.3, 100 μM and incubated for 48 h. The cells were loaded with dye or antibody relevant for each health marker and scanned using fluorescent cell imager. The following parameters were studied: cell count, nuclear size, DNA structure, mitochondrial mass, mitochondrial membrane potential, oxidative stress, glutathione content. The baseline for each parameter was determined based on vehicle control sample. The software calculates the percentage of cells that are low or high responders (depending on the biological significance of a particular readout). The vehicle control wells are then used to determine significance limits for wells that have a greater than expected fraction of low or high responders. The minimum effective concentration was determined from the lowest concentration whose mean value exceeds the significance level and provided either a clear dose-response relationship or at least two consecutive concentration points past the significance level.
# [3] = system: Normal Human Bronchial Epithelial (NHBE) cells; experiment: in vitro; format: cell-based; conditions: 48 h
# Protocol: as §2
smiles,measurement,setting,value
CC(C)(C)N1CCN(Cc2cc3nc(-c4cncc5[nH]ccc45)cc(N4CCOCC4)n3n2)CC1 [CPL302-253],cytotoxic effects in BioMap culture systems,[1],no cytotoxic effects observed
same,impact on other studied BioMAP systems,"[1]; systems other than BT, except PAI-1 in KF3CT",no impact
same,Remaining binding (%),PIK3CA(H1047Y),0%
same,Remaining binding (%),PIK3CA(I800L),44%
same,Remaining binding (%),PIK3CA(E545K),54%
same,Remaining binding (%),ULK2,33%
same,Remaining binding (%),PIK3CA(H1047L),92%
same,Remaining binding (%),PIK3CG,94%
same,Remaining binding (%),PIK3CA(M1043I),100%
same,Remaining binding (%),PIK3CA(Q546K),99%
same,Remaining binding (%),PIK3CA,96%
same,Remaining binding (%),MEK5,35%
same,Remaining binding (%),PIK3CA(E545A),45%
same,Remaining binding (%),PIK3CA(E542K),82%
same,Remaining binding (%),PIK3CD,1.1%
same,Remaining binding (%),ABL1-nonphosphorylated,36%
same,Remaining binding (%),PIK3CB,42%
same,Remaining binding (%),PIK3CA(C420R),12%
same,"inhibition of binding to specific substrate, kinases other than members of PI3K",[2],≤ 70%
same,AC50 at 48 h,in vitro,> 100 µM
same,AC50,[3],> 100 µM
same,MEC Cell count,[3],50.6 µM
same,MEC DNA structure,[3],24.4 µM
same,MEC Glutathione content,[3],10.6 µM
same,MEC Mitochondrial mass,[3],20.8 µM
same,MEC Mitochondrial membrane potential,[3],22.8 µM
same,MEC Nuclear size,[3],75.3 µM
same,MEC Oxidative stress,[3],16.1 µM
same,lowest concentration influencing any cell health parameter,[3],≥ 10 µM
